# Measurements: BindingDB's records for doi:10.1021/jm00072a019 (J. Uriach & Cía., 1993)
# Experiment: In vitro inhibition of PAF-induced platelet aggregation in male rabbits
row,IC50,Compound
1,75 nM,"Cc1ncccc1C(C#N)N1CCN(C(=O)CC(O)(c2ccc(F)cc2)c2ccc(F)cc2)CC1 (configuration not stated) [{4-[3,3-Bis-(4-fluoro-phenyl)-3-hydroxy-propionyl]-piperazin-1-yl}-(2-methyl-pyridin-3-yl)-acetonitrile]"
2,170 nM,"Cc1ncccc1C(C#N)N1CCN(C(=O)CC(c2ccccc2)N2CCCS2(=O)=O)CC1 (configuration not stated) [{4-[3-(1,1-Dioxo-1lambda*6*-isothiazolidin-2-yl)-3-phenyl-propionyl]-piperazin-1-yl}-(2-methyl-pyridin-3-yl)-acetonitrile]"
